The target in this test is GLP1R (Homo sapiens, UniProt P43220). Briefly: GLP1R cAMP HTRF assay, HEK293/GLP-1R/CRE/Luc (HEK293T cells). The class given is cell-based. To be noted: concentration yielding 50% of the maximum cAMP level of the same compound. How it is done:
GLP-1R-mediated agonist activity was determined with a cell-based functional assay utilizing an HTRF (Homogeneous Time-Resolved Fluorescence) cAMP detection kit (cAMP Dynamic 2 Assay Kit; CisBio cat #62AM4PEC) that measures cAMP levels in the cell. The method is a competitive immunoassay between native cAMP produced by the cells and exogenous cAMP labeled with the dye d2. The tracer binding is visualized by a mAb anti-cAMP labeled with Cryptate. The specific signal (i.e., energy transfer) is inversely proportional to the concentration of cAMP in either standard or experimental sample.
A cell line stably expressing the receptor was isolated. […]
IBMX and BSA were freshly added on the day of assay]. A 10 μL sample of the cell suspension was counted on an Invitrogen Countess II to determine cell viability and cell count per mL. […]
Following the 30 minute incubation, 5 μL of labeled d2 cAMP and 5 μL of anti-cAMP antibody (both diluted 1:20 in cell lysis buffer; as described in the manufacturer's assay protocol) were added to each well of the assay plate. […] Raw data were converted to nM cAMP by interpolation from a cAMP standard curve (as described in the manufacturer's assay protocol) and the percent effect was determined relative to a saturating concentration of the full agonist GLP-17-37 (10 nM) included on each plate. […]

Chain of GLP1R (P43220 24-463): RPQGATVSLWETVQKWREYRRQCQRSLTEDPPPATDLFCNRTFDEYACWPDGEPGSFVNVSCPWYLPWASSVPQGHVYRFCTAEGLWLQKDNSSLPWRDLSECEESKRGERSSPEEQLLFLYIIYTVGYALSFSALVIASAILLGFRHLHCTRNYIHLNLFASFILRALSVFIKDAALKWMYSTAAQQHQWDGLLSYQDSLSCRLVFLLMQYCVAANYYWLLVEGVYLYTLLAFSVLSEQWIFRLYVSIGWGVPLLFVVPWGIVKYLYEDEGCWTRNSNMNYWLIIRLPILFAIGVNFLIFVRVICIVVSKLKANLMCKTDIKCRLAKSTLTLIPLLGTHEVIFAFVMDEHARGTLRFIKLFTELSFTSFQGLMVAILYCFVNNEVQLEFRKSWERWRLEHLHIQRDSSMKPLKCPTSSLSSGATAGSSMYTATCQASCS

Regarding `N#Cc1ccc(COc2cc(F)cc(C3=CCN(Cc4nc5ccc(C(=O)O)cc5n4C[C@@H]4CCO4)CC3)c2)c(F)c1` [Compound 218, (S)-2-((4-(3-((4-cyano-2-fluorobenzyl)oxy)-5-fluorophenyl)-5,6-dihydropyridin-1(2H)-yl)methyl)-1-(oxetan-2-ylmethyl)-1H-benzo[d]imidazole-6-carboxylic acid], the EC50 is not above 150 nM.

The record behind these values is patent publication US12365670B2, “GLP-IR agonists and uses thereof” (QILU REGOR THERAPEUTICS INC., priority 2018, dated 2025).
